In ChEMBL document CHEMBL1140262 (J Med Chem, 2005):

Key:
[1] = biological target: Neuronal acetylcholine receptor; alpha4/beta2 (Rattus norvegicus, UniProt P09483+P12390); test: Inhibition of 3 nM [3H]NIC binding to Nicotinic acetylcholine receptor alpha4-beta2 of rat striatal membranes; format: cell membranes, Membrane
[2] = biological target: Synaptic vesicular amine transporter (Rattus norvegicus, UniProt Q01827); format: cell membranes, Membrane
Description: Inhibition of 5 nM [3H]DTBZ binding to Vesicular Monoamine Transporter (VAMT2) of rat vesicle membranes

[3] = biological target: Neuronal acetylcholine receptor subunit alpha-7 (Rattus norvegicus, UniProt Q05941); format: cell membranes, Membrane
Description: Inhibition of 3 nM [3H]-MLA binding to Nicotinic acetylcholine receptor alpha7 of rat brain membranes

Rattus norvegicus [4] = species on record: Rattus norvegicus; test: Ratio of Ki for Nicotinic acetylcholine receptor alpha4-beta2 and Vesicular Monoamine Transporter ([…])
Rattus norvegicus [5] = species on record: Rattus norvegicus; test: Ratio of Ki for Nicotinic acetylcholine receptor alpha-7 and Vesicular monoamine transporter ([…])

Neuronal acetylcholine receptor; alpha4/beta2, sequence (P09483 whole entry): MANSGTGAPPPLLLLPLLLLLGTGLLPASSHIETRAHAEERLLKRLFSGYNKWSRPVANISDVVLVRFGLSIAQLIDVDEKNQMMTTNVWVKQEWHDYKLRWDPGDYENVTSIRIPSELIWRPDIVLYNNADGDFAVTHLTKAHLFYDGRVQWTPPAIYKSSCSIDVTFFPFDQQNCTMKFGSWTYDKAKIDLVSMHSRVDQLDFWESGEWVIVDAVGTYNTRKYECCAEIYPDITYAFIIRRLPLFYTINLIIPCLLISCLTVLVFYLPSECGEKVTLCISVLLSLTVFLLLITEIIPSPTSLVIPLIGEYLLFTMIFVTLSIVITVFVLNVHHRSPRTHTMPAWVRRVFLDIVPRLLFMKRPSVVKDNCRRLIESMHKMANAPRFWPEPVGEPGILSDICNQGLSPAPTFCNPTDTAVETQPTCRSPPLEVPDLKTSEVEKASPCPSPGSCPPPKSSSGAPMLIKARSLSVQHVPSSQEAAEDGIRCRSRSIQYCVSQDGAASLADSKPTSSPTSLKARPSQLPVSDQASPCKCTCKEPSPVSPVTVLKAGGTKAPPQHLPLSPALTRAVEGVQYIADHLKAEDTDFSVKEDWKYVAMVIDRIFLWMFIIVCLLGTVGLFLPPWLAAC
Neuronal acetylcholine receptor; alpha4/beta2, sequence (P12390 whole entry): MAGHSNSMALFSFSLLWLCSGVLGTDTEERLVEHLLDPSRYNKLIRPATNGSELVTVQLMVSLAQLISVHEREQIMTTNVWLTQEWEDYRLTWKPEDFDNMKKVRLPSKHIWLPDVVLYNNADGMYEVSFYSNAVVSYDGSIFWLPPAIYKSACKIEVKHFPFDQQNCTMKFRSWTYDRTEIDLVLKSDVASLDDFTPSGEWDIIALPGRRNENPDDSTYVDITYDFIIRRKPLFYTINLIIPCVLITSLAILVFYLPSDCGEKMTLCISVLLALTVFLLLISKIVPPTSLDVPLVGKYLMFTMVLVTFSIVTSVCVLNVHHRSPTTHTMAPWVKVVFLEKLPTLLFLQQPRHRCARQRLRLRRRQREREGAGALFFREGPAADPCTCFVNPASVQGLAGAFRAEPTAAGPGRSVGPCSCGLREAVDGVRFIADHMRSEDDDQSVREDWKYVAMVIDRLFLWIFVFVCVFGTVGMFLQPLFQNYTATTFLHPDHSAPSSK
Synaptic vesicular amine transporter, sequence (Q01827 whole entry): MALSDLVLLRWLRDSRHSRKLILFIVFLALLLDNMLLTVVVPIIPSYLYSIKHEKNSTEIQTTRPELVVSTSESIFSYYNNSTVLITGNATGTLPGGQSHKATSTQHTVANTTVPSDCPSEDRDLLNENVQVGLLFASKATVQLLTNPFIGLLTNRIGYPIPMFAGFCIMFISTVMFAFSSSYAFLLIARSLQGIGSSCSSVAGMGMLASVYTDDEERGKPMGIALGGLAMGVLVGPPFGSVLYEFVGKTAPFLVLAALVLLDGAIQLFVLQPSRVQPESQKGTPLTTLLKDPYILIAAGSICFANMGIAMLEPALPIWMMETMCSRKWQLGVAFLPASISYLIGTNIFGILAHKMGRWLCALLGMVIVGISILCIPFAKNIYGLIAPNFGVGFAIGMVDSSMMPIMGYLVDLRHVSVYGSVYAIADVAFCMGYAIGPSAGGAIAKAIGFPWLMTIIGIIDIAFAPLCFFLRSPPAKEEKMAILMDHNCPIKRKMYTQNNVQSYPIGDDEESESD
Neuronal acetylcholine receptor subunit alpha-7, sequence (Q05941 whole entry): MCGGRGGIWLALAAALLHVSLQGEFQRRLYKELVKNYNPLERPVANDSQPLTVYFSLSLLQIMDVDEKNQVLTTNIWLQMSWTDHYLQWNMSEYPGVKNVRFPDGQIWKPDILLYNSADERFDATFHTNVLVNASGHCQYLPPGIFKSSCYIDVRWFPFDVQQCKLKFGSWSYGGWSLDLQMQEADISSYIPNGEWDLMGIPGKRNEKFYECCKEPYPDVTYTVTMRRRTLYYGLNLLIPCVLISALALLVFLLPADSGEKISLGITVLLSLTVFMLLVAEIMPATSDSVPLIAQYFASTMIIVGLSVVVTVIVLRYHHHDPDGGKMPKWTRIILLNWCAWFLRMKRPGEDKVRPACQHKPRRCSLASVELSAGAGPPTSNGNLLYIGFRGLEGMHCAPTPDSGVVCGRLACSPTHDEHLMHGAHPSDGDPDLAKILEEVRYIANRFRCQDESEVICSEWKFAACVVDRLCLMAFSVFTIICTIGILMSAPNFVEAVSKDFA

SMILES | Ki [1] [µM] | Ki [2] [µM] | Ki [3] [µM] | Ki ratio (Rattus norvegicus [4]) | Ki ratio (Rattus norvegicus [5])
c1ccc2cc(CC[C@H]3CCC[C@@H](CCc4ccc5ccccc5c4)N3)ccc2c1 | > 100 | > 100 | > 100 | – | –
CN1[C@@H](CCc2ccccc2)CCC[C@H]1CCc1ccccc1 [LOBELANE] | – | – | 26 | – | –
CN1[C@@H](CCc2ccc3ccccc3c2)CCC[C@H]1CCc1ccc2ccccc2c1 | > 100 | 2.03 | > 100 | > 49.3 | > 49.3
C[N+]1(C)[C@@H](CCc2ccccc2)CCC[C@H]1CCc1ccccc1 | 24.3 | 16.5 | 9.63 | 1.5 | 0.6
c1ccc(CC[C@H]2CCC[C@@H](CCc3ccccc3)N2)cc1 | > 100 | 2.31 | > 100 | > 43.3 | > 43.3
CN1[C@@H](CCc2cccc3ccccc23)CCC[C@H]1CCc1cccc2ccccc12 | > 100 | 0.63 | > 100 | > 159 | > 159
CN1[C@@H](CCc2ccccc2)CCC[C@@H]1CCc1ccccc1 | – | – | 40 | – | –
C[N+]1(C)[C@H](CCc2ccccc2)CCC[C@H]1CCc1ccccc1 | 16.2 | 24.6 | 2.39 | 0.7 | 0.1
C(=C\[C@@H]1CCC[C@H](/C=C/c2ccccc2)N1)/c1ccccc1 | > 100 | – | > 100 | > 48.1 | > 48.1
CN[C@H](CCCCCCc1ccccc1)CCc1ccccc1 | > 100 | 3.96 | > 100 | > 25.2 | > 25.2
CN1[C@H](CCc2ccccc2)CCC[C@H]1CCc1ccccc1 | – | – | 25.3 | – | –
CN1[C@@H](CCc2ccccc2)CCC[C@H]1/C=C/c1ccccc1 | > 100 | – | – | – | –
CN1[C@H](CCc2ccccc2)CCC[C@H]1/C=C/c1ccccc1 | > 100 | – | – | – | –
CN1[C@H](CCc2ccccc2)CC=C[C@@H]1CCc1ccccc1 | > 100 | – | – | – | –
C[N+]1(C)[C@H](/C=C/c2ccccc2)CCC[C@H]1/C=C/c1ccccc1 | > 100 | 9.24 | 15.1 | > 10.8 | 1.6
CN1[C@@H](CCc2ccccc2)CCC[C@@H]1/C=C/c1ccccc1 | > 100 | – | – | – | –
CN1[C@@H](CCc2ccccc2)C=CC[C@H]1/C=C/c1ccccc1 | > 100 | 3.84 | > 100 | > 26 | > 26
CN(CCCc1ccccc1)CCCc1ccccc1 | > 100 | 3.07 | > 100 | > 32.3 | > 32.3
C[N+]1(C)[C@H](/C=C/c2ccccc2)CCC[C@@H]1/C=C/c1ccccc1 | > 100 | > 100 | 33.8 | – | < 0.3
CN1[C@@H](/C=C/c2ccccc2)CCC[C@@H]1/C=C/c1ccccc1 | > 100 | 7.09 | > 100 | > 14.1 | > 14.1
CN[C@@H](CCCCCCc1ccccc1)CCc1ccccc1 | > 100 | 5.21 | > 100 | > 19.2 | > 19.2
CN1[C@H](/C=C/c2ccccc2)CCC[C@H]1/C=C/c1ccccc1 | > 100 | 19.4 | > 100 | > 5.2 | > 5.2
CN(C/C=C/c1ccccc1)C/C=C/c1ccccc1 | > 100 | 2.37 | > 100 | > 42.2 | > 42.2
CN1[C@H](CCc2ccccc2)CCC[C@@H]1/C=C/c1ccccc1 | > 100 | – | – | – | –
CN1[C@H](/C=C/c2ccccc2)CCC[C@@H]1/C=C/c1ccccc1 | 11.6 | 9.88 | > 100 | 1.2 | > 10.1
c1ccc2c(CC[C@H]3CCC[C@@H](CCc4cccc5ccccc45)N3)cccc2c1 | > 100 | 4.68 | > 100 | > 21.4 | > 21.4
C(=C\[C@@H]1CCC[C@@H](/C=C/c2ccccc2)N1)/c1ccccc1.C(=C\[C@H]1CCC[C@H](/C=C/c2ccccc2)N1)/c1ccccc1 | > 100 | 5.19 | > 100 | > 19.3 | > 19.3
